What was measured:
Type in all cases: in vivo
[1] = tested on: ragweed (common ragweed, Ambrosia elatior); test: Test A preemergence, ragweed; details: Preemergence, 0 to 100 scale (0 no effect, 100 complete control)
Procedure, shortened: (§1)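 Scores (0 no effect to 100 complete control) come from visual comparison of treated and untreated plants kept about 10 days in a greenhouse. Growth medium was a loam/sand blend; preemergence treatment was a directed soil spray, postemergence treatment went onto plants at the 1–2 leaf stage.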

[2] = tested on: barnyardgrass (Echinochloa crus-galli); test: Test B flooded paddy test, barnyardgrass; details: 250 g ai/ha, Flood; visual rating after 13 to 15 days; scale 0 to 100, 0 is no effect, 100 is complete control
Procedure, shortened: (§2)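 Seedlings at the 2-leaf stage are flooded to 3 cm and treated via the paddy water. Greenhouse plants are compared with controls after 13 to 15 days and given a 0 (no effect) to 100 (complete control) rating.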

rice (Oryza sativa) = test: Test B flooded paddy test, rice; details: 250 g ai/ha, Flood; visual rating after 13 to 15 days; scale 0 to 100, 0 is no effect, 100 is complete control
Procedure, shortened: as §2

corn (Zea mays) = test: Test A postemergence, corn
Procedure, shortened: as §1

[3] = tested on: barnyardgrass (Echinochloa crus-galli); test: Test A postemergence, barnyardgrass
Procedure, shortened: as §1

[4] = tested on: ragweed (common ragweed, Ambrosia elatior); test: Test A postemergence, ragweed
Procedure, shortened: as §1

[5] = tested on: sedge, umbrella (small-flower umbrella sedge, Cyperus difformis); test: Test B flooded paddy test, umbrella sedge; details: 250 g ai/ha, Flood; visual rating after 13 to 15 days; scale 0 to 100, 0 is no effect, 100 is complete control
Procedure, shortened: as §2

[6] = tested on: pigweed (Amaranthus retroflexus); test: Test A postemergence, pigweed
Procedure, shortened: as §1

kochia (Kochia scoparia) [7] = test: Test A postemergence, kochia
Procedure, shortened: as §1

[8] = tested on: barnyardgrass (Echinochloa crus-galli); test: Test A preemergence, barnyardgrass; details: Preemergence, 0 to 100 scale (0 no effect, 100 complete control)
Procedure, shortened: as §1

[9] = tested on: foxtail, giant (giant foxtail, Setaria faberii); test: Test A preemergence, giant foxtail; details: Preemergence, 0 to 100 scale (0 no effect, 100 complete control)
Procedure, shortened: as §1

[10] = tested on: ducksalad (Heteranthera limosa); test: Test B flooded paddy test, ducksalad; details: 250 g ai/ha, Flood; visual rating after 13 to 15 days; scale 0 to 100, 0 is no effect, 100 is complete control
Procedure, shortened: as §2

kochia (Kochia scoparia) [11] = test: Test A preemergence, kochia; details: Preemergence, 0 to 100 scale (0 no effect, 100 complete control)
Procedure, shortened: as §1

[12] = tested on: ryegrass, Italian (Italian ryegrass, Lolium multiflorum); test: Test A preemergence, Italian ryegrass; details: Preemergence, 0 to 100 scale (0 no effect, 100 complete control)
Procedure, shortened: as §1

[13] = tested on: foxtail, giant (giant foxtail, Setaria faberii); test: Test A postemergence, giant foxtail
Procedure, shortened: as §1

[14] = tested on: blackgrass (Alopecurus myosuroides); test: Test A postemergence, blackgrass
Procedure, shortened: as §1

[15] = tested on: ryegrass, Italian (Italian ryegrass, Lolium multiflorum); test: Test A postemergence, Italian ryegrass
Procedure, shortened: as §1

[16] = tested on: wheat (Triticum aestivum); test: Test A postemergence, wheat
Procedure, shortened: as §1

[17] = tested on: pigweed (Amaranthus retroflexus); test: Test A preemergence, pigweed; details: Preemergence, 0 to 100 scale (0 no effect, 100 complete control)
Procedure, shortened: as §1

[18] = tested on: galium (catchweed bedstraw, Galium aparine); test: Test A postemergence, galium
Procedure, shortened: as §1

[19] = 125 g ai/ha, postemergence, 0 to 100 scale, 0 is no effect, 100 is complete control, approximately 10 days
[20] = 500 g ai/ha, postemergence, 0 to 100 scale, 0 is no effect, 100 is complete control, approximately 10 days
[21] = Postemergence, 31 g ai/ha, 0 to 100 scale (0 no effect, 100 complete control)
[22] = 31 g ai/ha, postemergence, 0 to 100 scale, 0 is no effect, 100 is complete control, approximately 10 days

Row | Structure (SMILES) | Plant response rating, Ragweed ([1]; 125 g ai/ha) | Plant response rating, Barnyardgrass [2] | Plant response rating, Rice (rice (Oryza sativa)) | Plant response rating, Corn (corn (Zea mays); [19]) | Plant response rating, Barnyardgrass [3, 19] | Plant response rating, Ragweed [4, 19] | Plant response rating, Sedge, Umbrella [5] | Plant response rating, Pigweed [6, 19] | Plant response rating, Kochia (kochia (Kochia scoparia) [7]; [19]) | Plant response rating, Barnyardgrass ([8]; 125 g ai/ha) | Plant response rating, Foxtail, Giant ([9]; 125 g ai/ha) | Plant response rating, Ducksalad [10] | Plant response rating, Kochia (kochia (Kochia scoparia) [11]; 125 g ai/ha) | Plant response rating, Ryegrass, Italian ([12]; 125 g ai/ha) | Plant response rating, Foxtail, Giant [13, 19] | Plant response rating, Blackgrass [14, 19] | Plant response rating, Ryegrass, Italian [15, 19] | Plant response rating, Wheat [16, 19] | Plant response rating, Pigweed ([17]; 125 g ai/ha) | Plant response rating, Galium [18, 19] | also measured
1 | FCCCOc1c(F)cccc1Oc1ncc(Cl)cn1 [Compound 26] | 0 | 0 | 0 | 0 | 10 | 0 | 0 | 60 | 60 | 40 | 50 | 30 | 10 | 0 | 10 | 0 | 0 | 0 | 90 | 70 | Plant response rating, Ragweed ([1]; 500 g ai/ha): 20; Plant response rating, Corn (corn (Zea mays); [20]): 10; Plant response rating, Barnyardgrass [3, 20]: 60; Plant response rating, Ragweed [4, 20]: 20; Plant response rating, Pigweed [6, 20]: 90; Plant response rating, Kochia (kochia (Kochia scoparia) [7]; [20]): 90; Plant response rating, Barnyardgrass ([8]; 500 g ai/ha): 100; Plant response rating, Foxtail, Giant ([9]; 500 g ai/ha): 100; Plant response rating, Kochia (kochia (Kochia scoparia) [11]; 500 g ai/ha): 100; Plant response rating, Ryegrass, Italian ([12]; 500 g ai/ha): 20; Plant response rating, Foxtail, Giant [13, 20]: 70; Plant response rating, Blackgrass [14, 20]: 50; Plant response rating, Ryegrass, Italian [15, 20]: 0; Plant response rating, Wheat [16, 20]: 0; Plant response rating, Pigweed ([17]; 500 g ai/ha): 100; Plant response rating, Galium [18, 20]: 50
2 | Cc1cccc(Oc2ncc(Cl)cn2)c1OCCCC#N [Compound 70] | 0 | 0 | 0 | 20 | 30 | 20 | 50 | 40 | 30 | 70 | 30 | 70 | 20 | 0 | 0 | 0 | 0 | 0 | 50 | 20 | Plant response rating, Ragweed ([1]; 31 g ai/ha): 0; Plant response rating, Corn (corn (Zea mays); [21]): 0; Plant response rating, Barnyardgrass [3, 21]: 0; Plant response rating, Ragweed [4, 21]: 0; Plant response rating, Pigweed [6, 21]: 20; Plant response rating, Kochia (kochia (Kochia scoparia) [7]; [21]): 20; Plant response rating, Barnyardgrass ([8]; 31 g ai/ha): 0; Plant response rating, Foxtail, Giant ([9]; 31 g ai/ha): 0; Plant response rating, Kochia (kochia (Kochia scoparia) [11]; 31 g ai/ha): 0; Plant response rating, Ryegrass, Italian ([12]; 31 g ai/ha): 0; Plant response rating, Foxtail, Giant [13, 21]: 0; Plant response rating, Blackgrass [14, 21]: 0; Plant response rating, Ryegrass, Italian [15, 21]: 0; Plant response rating, Wheat [16, 21]: 0; Plant response rating, Pigweed ([17]; 31 g ai/ha): 0; Plant response rating, Galium [18, 21]: 0
3 | N#Cc1cccc(Oc2ncc(Cl)cn2)c1OCCCCC(F)(F)F [Compound 32] | 10 | 30 | 40 | 20 | 100 | 10 | 100 | 100 | 100 | 100 | 100 | 90 | 90 | 30 | 80 | 50 | 30 | 30 | 100 | 100 | Plant response rating, Ragweed ([1]; 31 g ai/ha): 0; Plant response rating, Corn (corn (Zea mays); [22]): 10; Plant response rating, Barnyardgrass [3, 22]: 60; Plant response rating, Ragweed [4, 22]: 10; Plant response rating, Pigweed [6, 22]: 100; Plant response rating, Kochia (kochia (Kochia scoparia) [7]; [22]): 100; Plant response rating, Barnyardgrass ([8]; 31 g ai/ha): 30; Plant response rating, Foxtail, Giant ([9]; 31 g ai/ha): 100; Plant response rating, Kochia (kochia (Kochia scoparia) [11]; 31 g ai/ha): 30; Plant response rating, Ryegrass, Italian ([12]; 31 g ai/ha): 10; Plant response rating, Foxtail, Giant [13, 22]: 50; Plant response rating, Blackgrass [14, 22]: 30; Plant response rating, Ryegrass, Italian [15, 22]: 10; Plant response rating, Wheat [16, 22]: 20; Plant response rating, Pigweed ([17]; 31 g ai/ha): 100; Plant response rating, Galium [18, 22]: 70
4 | N#Cc1cccc(Oc2ncc(Cl)cn2)c1OCC(=O)CCC(F)(F)F [Compound 62] | 0 | 0 | 0 | 0 | 0 | 0 | 0 | 0 | 0 | 0 | 0 | 0 | 0 | 0 | 0 | 0 | 0 | 0 | 0 | 0 | Plant response rating, Ragweed ([1]; 31 g ai/ha): 0; Plant response rating, Corn (corn (Zea mays); [22]): 0; Plant response rating, Barnyardgrass [3, 22]: 0; Plant response rating, Ragweed [4, 22]: 0; Plant response rating, Pigweed [6, 22]: 0; Plant response rating, Kochia (kochia (Kochia scoparia) [7]; [22]): 0; Plant response rating, Barnyardgrass ([8]; 31 g ai/ha): 0; Plant response rating, Foxtail, Giant ([9]; 31 g ai/ha): 0; Plant response rating, Kochia (kochia (Kochia scoparia) [11]; 31 g ai/ha): 0; Plant response rating, Ryegrass, Italian ([12]; 31 g ai/ha): 0; Plant response rating, Foxtail, Giant [13, 22]: 0; Plant response rating, Blackgrass [14, 22]: 0; Plant response rating, Ryegrass, Italian [15, 22]: 0; Plant response rating, Wheat [16, 22]: 0; Plant response rating, Pigweed ([17]; 31 g ai/ha): 0; Plant response rating, Galium [18, 22]: 0

Source: patent publication US10485235B2, “Aryloxypyrimidinyl ethers as herbicides” (FMC Corporation, priority 2015, dated 2019)
